Measurements reported in ChEMBL document CHEMBL4732247, “Discovery of A031 as effective proteolysis targeting chimera (PROTAC) androgen receptor (AR) degrader for the treatment of prostate cancer” (Eur J Med Chem, 2021).

Columns and labels:
VCaP [1] = assay: Cytotoxicity against human VCaP cells assessed as growth inhibition at 0.25 uM after 4 days by CCK8 assay relative to control; assay type: functional; details: 96 h, time 4 day, read-out: GI
VCaP [2] = assay: Cytotoxicity against human VCaP cells assessed as growth inhibition at 0.5 uM after 4 days by CCK8 assay relative to control; assay type: functional; details: 96 h, time 4 day, read-out: GI
VCaP [3] = assay: Cytotoxicity against human VCaP cells assessed as growth inhibition at 1 uM after 4 days by CCK8 assay relative to control; assay type: functional; details: 96 h, time 4 day, read-out: GI
VCaP [4] = assay: Cytotoxicity against human VCaP cells assessed as growth inhibition at 0.125 uM after 4 days by CCK8 assay relative to control; assay type: functional; details: 96 h, time 4 day, read-out: GI
VCaP [5] = assay: Cytotoxicity against human VCaP cells assessed as growth inhibition after 4 days by CCK8 assay; assay type: functional, cell-based; details: dose 0.032-4 µM, time 4.0 day
VCaP [6] = assay: Cytotoxicity against human VCaP cells assessed as growth inhibition at 4 uM after 4 days by CCK8 assay relative to control; assay type: functional; details: 96 h, time 4 day, read-out: GI
VCaP [7] = assay: Cytotoxicity against human VCaP cells assessed as growth inhibition at 0.8 uM after 4 days by CCK8 assay relative to control; assay type: functional; details: 96 h, time 4 day, read-out: GI

Row | SMILES | inhibition of growth at 0.25 µM (VCaP [1]) [%] | inhibition of growth at 0.5 µM (VCaP [2]) [%] | inhibition of growth at 1 µM (VCaP [3]) [%] | inhibition of growth at 0.125 µM (VCaP [4]) [%] | growth inhibition (GI) (VCaP [5]) | inhibition of growth at 4 µM (VCaP [6]) [%] | inhibition of growth at 0.8 µM (VCaP [7]) [%]
1 | Cc1ncsc1-c1ccc([C@H](C)NC(=O)[C@@H]2C[C@@H](O)CN2C(=O)[C@@H](NC(=O)COCCN2CCN(c3ccc(C(=O)N4[C@@H]5CC[C@H]4C[C@@H](Oc4ccc(C#N)c(Cl)c4)C5)nn3)CC2)C(C)(C)C)cc1 | 6.65 | 12.5 | 28.1 | – | – | – | –
2 | Cc1ncsc1-c1ccc(CNC(=O)[C@@H]2C[C@@H](O)CN2C(=O)[C@@H](NC(=O)CCN2CCN(c3ccc(C(=O)N4[C@@H]5CC[C@H]4C[C@@H](Oc4ccc(C#N)c(Cl)c4)C5)cc3)CC2)C(C)(C)C)cc1 | 2.74 | 18.2 | 61.2 | 1.87 | – | – | –
3 | Cc1ncsc1-c1ccc(CNC(=O)[C@@H]2C[C@@H](O)CN2C(=O)[C@@H](NC(=O)CN2CCN(c3ccc(C(=O)N4[C@@H]5CC[C@H]4C[C@@H](Oc4ccc(C#N)c(Cl)c4)C5)cc3)CC2)C(C)(C)C)cc1 | 5.65 | 35.1 | 86.7 | – | – | – | –
4 | Cc1ncsc1-c1ccc([C@H](CC(=O)NCCCCCCCCCN2CCN(c3ccc(C(=O)N4[C@@H]5CC[C@H]4C[C@@H](Oc4ccc(C#N)c(Cl)c4)C5)cc3)CC2)NC(=O)[C@H]2C[C@H](O)CN2C(=O)[C@H](NC(=O)C2(F)CC2)C(C)(C)C)cc1 | 15.9 | 29 | 55.2 | 5.34 | – | – | –
5 | C[C@@]12C[C@H](NC(=O)c3ccc(N4CCN(CCCCCCNc5ccc6c(c5)C(=O)N(C5CCC(=O)NC5=O)C6=O)CC4)cc3)C[C@]1(C)C[C@@H](Oc1ccc(C#N)c(Cl)c1)C2 (some centres undefined) | 31.8 | 34.5 | 35.3 | 30.7 | – | – | –
6 | Cc1ncsc1-c1ccc([C@H](CC(=O)NCCCCCCCN2CCN(c3ccc(C(=O)N4[C@@H]5CC[C@H]4C[C@@H](Oc4ccc(C#N)c(Cl)c4)C5)cc3)CC2)NC(=O)[C@H]2C[C@H](O)CN2C(=O)[C@H](NC(=O)C2(F)CC2)C(C)(C)C)cc1 | 2.18 | 14.5 | 29.8 | – | – | – | –
7 | Cc1ncsc1-c1ccc([C@H](C)NC(=O)[C@@H]2C[C@@H](O)CN2C(=O)[C@@H](NC(=O)COCCN2CCN(c3ccc(C(=O)N4[C@@H]5CC[C@H]4C[C@@H](Oc4ccc(C#N)c(Cl)c4)C5)cn3)CC2)C(C)(C)C)cc1 | 7.23 | 63.6 | 72.5 | 28.4 | – | – | –
8 | C[C@@]12C[C@H](NC(=O)c3ccc(N4CCN(CCCCCNc5ccc6c(c5)C(=O)N(C5CCC(=O)NC5=O)C6=O)CC4)cc3)C[C@]1(C)C[C@@H](Oc1ccc(C#N)c(Cl)c1)C2 (some centres undefined) | 30.3 | 38.1 | 44.5 | 24.1 | – | – | –
9 | N#Cc1ccc(O[C@H]2C[C@H]3CC[C@@H](C2)N3C(=O)c2cnc(N3CCN(CCCCCCCNc4cccc5c4C(=O)N(C4CCC(=O)NC4=O)C5=O)CC3)nc2)cc1Cl (some centres undefined) | 27.4 | 28.3 | 37.5 | 26.7 | Dose-dependent effect | – | –
10 | N#Cc1ccc(O[C@H]2C[C@H]3CC[C@@H](C2)N3C(=O)c2cnc(N3CCN(CCCCNc4ccc5c(c4)C(=O)N(C4CCC(=O)NC4=O)C5=O)CC3)nc2)cc1Cl (some centres undefined) | 22.2 | 36.5 | 53.1 | 10.2 | – | – | –
11 | Cc1ncsc1-c1ccc([C@H](CC(=O)NCCCCCCCCN2CCN(c3ccc(C(=O)N4[C@@H]5CC[C@H]4C[C@@H](Oc4ccc(C#N)c(Cl)c4)C5)cc3)CC2)NC(=O)[C@H]2C[C@H](O)CN2C(=O)[C@H](NC(=O)C2(F)CC2)C(C)(C)C)cc1 | 11.3 | 24.1 | 44.7 | – | – | – | –
12 | Cc1ncsc1-c1ccc([C@H](C)NC(=O)[C@@H]2C[C@@H](O)CN2C(=O)[C@@H](NC(=O)COCCN2CCN(c3ccc(C(=O)N4[C@@H]5CC[C@H]4C[C@@H](Oc4ccc(C#N)c(Cl)c4)C5)nc3)CC2)C(C)(C)C)cc1 | 25.6 | 33.9 | 43.2 | 18.8 | – | – | –
13 | N#Cc1ccc(O[C@H]2C[C@H]3CC[C@@H](C2)N3C(=O)c2ccc(N3CCN(CCCCCCCCCOc4cccc5c4C(=O)N(C4CCC(=O)NC4=O)C5=O)CC3)cc2)cc1Cl (some centres undefined) | – | – | – | – | Dose-dependent effect | 30.6 | 21.9
14 | C[C@@]12C[C@H](NC(=O)c3ccc(N4CCN(CCCCCCCCCNc5ccc6c(c5)C(=O)N(C5CCC(=O)NC5=O)C6=O)CC4)cc3)C[C@]1(C)C[C@@H](Oc1ccc(C#N)c(Cl)c1)C2 (some centres undefined) | 18 | 24.3 | 25 | – | – | – | –
15 | Cc1ncsc1-c1ccc([C@H](C)NC(=O)[C@@H]2C[C@@H](O)CN2C(=O)[C@@H](NC(=O)COCCN2CCN(c3cnc(C(=O)N4[C@@H]5CC[C@H]4C[C@@H](Oc4ccc(C#N)c(Cl)c4)C5)cn3)CC2)C(C)(C)C)cc1 | 52 | 61.5 | 72.3 | 42.4 | – | – | –
16 | N#Cc1ccc(O[C@H]2C[C@H]3CC[C@@H](C2)N3C(=O)c2cnc(N3CCN(CCCNc4cccc5c4C(=O)N(C4CCC(=O)NC4=O)C5=O)CC3)nc2)cc1Cl (some centres undefined) | – | 9.74 | 30.4 | – | Dose-dependent effect | – | –
17 | N#Cc1ccc(O[C@H]2C[C@H]3CC[C@@H](C2)N3C(=O)c2cnc(N3CCN(CCCCCCCNc4ccc5c(c4)C(=O)N(C4CCC(=O)NC4=O)C5=O)CC3)nc2)cc1Cl (some centres undefined) | 30.7 | 35.2 | 30.4 | 28.1 | – | – | –
18 | Cc1ncsc1-c1ccc([C@H](C)NC(=O)[C@@H]2C[C@@H](O)CN2C(=O)[C@@H](NC(=O)COCCN2CCN(c3ccc(C(=O)N4[C@@H]5CC[C@H]4C[C@@H](Oc4ccc(C#N)c(Cl)c4)C5)cc3)CC2)C(C)(C)C)cc1 | 61.8 | 70.6 | 76.2 | 45 | – | – | –
19 | N#Cc1ccc(O[C@H]2C[C@H]3CC[C@@H](C2)N3C(=O)c2cnc(N3CCN(CCCCCNc4cccc5c4C(=O)N(C4CCC(=O)NC4=O)C5=O)CC3)nc2)cc1Cl (some centres undefined) | 24.6 | 30.1 | 36.9 | 20 | Dose-dependent effect | – | –
20 | C[C@@]12C[C@H](NC(=O)c3ccc(N4CCN(CCCCCCCNc5ccc6c(c5)C(=O)N(C5CCC(=O)NC5=O)C6=O)CC4)cc3)C[C@]1(C)C[C@@H](Oc1ccc(C#N)c(Cl)c1)C2 (some centres undefined) | 14 | 14.3 | 14.8 | 7.46 | – | – | –
21 | N#Cc1ccc(O[C@H]2C[C@H]3CC[C@@H](C2)N3C(=O)c2cnc(N3CCN(CCCCNc4cccc5c4C(=O)N(C4CCC(=O)NC4=O)C5=O)CC3)nc2)cc1Cl (some centres undefined) | 29 | 44.4 | 50.4 | 19 | Dose-dependent effect | – | –
22 | N#Cc1ccc(O[C@H]2C[C@H]3CC[C@@H](C2)N3C(=O)c2cnc(N3CCN(CCCCCNc4ccc5c(c4)C(=O)N(C4CCC(=O)NC4=O)C5=O)CC3)nc2)cc1Cl (some centres undefined) | 31.4 | 34.2 | 34.9 | 20.4 | – | – | –
23 | N#Cc1ccc(O[C@H]2C[C@H]3CC[C@@H](C2)N3C(=O)c2cnc(N3CCN(CCCCCCNc4ccc5c(c4)C(=O)N(C4CCC(=O)NC4=O)C5=O)CC3)nc2)cc1Cl (some centres undefined) | 36.3 | 37.8 | 38.9 | 31.7 | – | – | –
24 | CN1CCC(N2CCC(C#Cc3ccc(C(=O)N4[C@@H]5CC[C@H]4C[C@@H](Oc4ccc(C#N)c(Cl)c4)C5)cc3)CC2)CC1 | 23.3 | 30.1 | 34 | 14.9 | – | – | –
25 | Cc1ncsc1-c1ccc(CNC(=O)[C@@H]2C[C@@H](O)CN2C(=O)[C@@H](NC(=O)COCCN2CCN(c3ccc(C(=O)N4[C@@H]5CC[C@H]4C[C@@H](Oc4ccc(C#N)c(Cl)c4)C5)cc3)CC2)C(C)(C)C)cc1 | 31.1 | 56.6 | 64.6 | 18.5 | – | – | –
26 | C[C@@]12C[C@H](NC(=O)c3ccc(N4CCN(CCCCCCCCNc5ccc6c(c5)C(=O)N(C5CCC(=O)NC5=O)C6=O)CC4)cc3)C[C@]1(C)C[C@@H](Oc1ccc(C#N)c(Cl)c1)C2 (some centres undefined) | 19.5 | 24.6 | 26 | 6.05 | – | – | –
27 | N#Cc1ccc(O[C@H]2C[C@H]3CC[C@@H](C2)N3C(=O)c2cnc(N3CCN(CCCCCCNc4cccc5c4C(=O)N(C4CCC(=O)NC4=O)C5=O)CC3)nc2)cc1Cl (some centres undefined) | 23.5 | 32.1 | 40.5 | 10.1 | Dose-dependent effect | – | –
28 | N#Cc1ccc(O[C@H]2C[C@H]3CC[C@@H](C2)N3C(=O)c2cnc(N3CCN(CCCNc4ccc5c(c4)C(=O)N(C4CCC(=O)NC4=O)C5=O)CC3)nc2)cc1Cl (some centres undefined) | 25.6 | 30.1 | 42.4 | 17.1 | – | – | –
